Measurements taken from US20030068789A1, “Method for cultivating microorganism” (priority 2000, published 2003).

Tested on: microorganism having nitrile hydratase activity
Assay: Growth inhibition caused by cobalt ions in cultivating a microorganism
Type: cell-based
Conditions: sugar present in culture solution as carbon source
Excerpt: The present inventors have conducted intensive studies on culture conditions to industrially obtain microbial cells having nitrile hydratase activity within a short period and at a high yield. […] Thus, the present invention has been accomplished.
As a result, it is possible to obtain microbial cells having nitrile hydratase enzyme activity within a short period and at a high yield

| Structure (SMILES) | growth inhibition caused by cobalt ions |
| --- | --- |
| O=C(CO)[C@@H](O)[C@H](O)[C@H](O)CO [fructose] | can reduce growth inhibition caused by cobalt ions |
| OC[C@@H](O)[C@@H](O)[C@H](O)[C@H](O)CO [mannitol] | can reduce growth inhibition caused by cobalt ions |
